Experimental findings from patent publication US20240197694A1, “MODIFIED PROTEINS AND PROTEIN BINDERS” (Cullgen (Shanghai), Inc., priority 2021, published 2024) are described below.

T1 sequence (Q9Y4B6 1058-1396): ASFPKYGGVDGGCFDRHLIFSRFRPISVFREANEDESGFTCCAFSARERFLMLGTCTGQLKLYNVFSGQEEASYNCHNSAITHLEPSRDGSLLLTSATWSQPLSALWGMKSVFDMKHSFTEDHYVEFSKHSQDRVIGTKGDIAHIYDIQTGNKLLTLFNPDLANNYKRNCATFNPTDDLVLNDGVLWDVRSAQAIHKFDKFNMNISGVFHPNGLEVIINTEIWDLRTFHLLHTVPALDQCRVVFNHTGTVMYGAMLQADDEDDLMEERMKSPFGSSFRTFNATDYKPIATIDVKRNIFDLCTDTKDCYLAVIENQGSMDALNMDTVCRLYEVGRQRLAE

This test addresses T1, DCAF1 (1058-1396) (Homo sapiens, UniProt Q9Y4B6).
T1 construct: a fragment of a DCAF1 protein that includes amino acid residues A1058 to E1396; His6 (N, cleaved yes); made in house; host or cells: Sf9 insect cells (Bac-to-Bac baculovirus, pFastBacHT vector)
The experiment in a line: Surface plasmon resonance (SPR) binding assay, compound binding to DCAF1. The conditions noted are these: immobilized DCAF1 (1058-1396), steady state affinity model, 25° C. On the procedure:
Binding affinities of specific exemplary compounds to DCAF1 (1058-1396), which is a fragment of a DCAF1 protein that includes amino acid residues A1058 to E1396 were determined by a surface plasmon resonance (SPR) assay. Briefly, purified DCAF1 (1058-1396) proteins were immobilized at a density of 9,000-11,000 resonance units (RUs) on a CMS sensor chip. Sensorgrams were recorded at different concentrations of compounds in multi-cycle kinetic format. Data were analyzed using a steady state affinity model through Biacore Evaluation Software to provide equivalent dissociation constants (Kd).
Binding affinities of compounds to DCAF1 were determined by a surface plasmon resonance (SPR) assay. Purified DCAF1 (1058-1396) proteins were immobilized on a CMS sensor chip, and a dose range of compound solutions were injected in multi-cycle kinetic format. Data were analyzed using a steady state model to provide equivalent dissociation constants (Kd).
Protein Expression and Purification: Human DCAF1 (1058-1396) (UniPro: Q9Y4B6) coding sequences were cloned into pFastBacHT vector and were expressed in Sf9 cells using Bac-to-Bac baculovirus expression system (Thermo Fisher Scientific). The expression construct for DCAF1 (1058-1396) included a N-terminal His6-tag to facilitate the purification. DCAF1 (1058-1396) proteins were obtained from supernatants of cell lysates and purified through sequential application of Ni affinity chromatography (Ni-NTA column, Bio-Rad), Tag removal using TEV protease, and size-exclusion chromatography (Superdex 200 column, GE Healthcare).
Surface plasmon resonance (SPR) binding assays: SPR studies were performed on a Biacore X100 plus or T200 instrument (GE Healthcare). Immobilization of purified DCAF1 (1058-1396) was carried out at 25° C. using a CMS sensor chip. The surface was pre-equilibrated in HBS-EP running buffer (10 mM HEPES, pH 7.4, 150 mM NaCl, 3 mM EDTA, 0.05% P20), before being activated with EDC/NHS. DCAF1 (1058-1396) was immobilized through amino groups to a density of 9,000-12,000 resonance units (RUs) on flow cell channel 2 (FC2), whereas flow cell channel 1 (FC1) was used as reference. Both DCAF1 immobilized and reference surfaces were deactivated with 1 M ethanolamine.
Interaction experiments were performed at 25° C. The compounds were prepared and serially diluted in HBS-EP running buffer containing final 2% DMSO (6-point two-fold serial dilution, 100 μM -3.125 μM final concentration of compounds). Compound Solutions were injected individually in multi-cycle kinetic format without regeneration (flow rate 30 μL/min, association time 60 s, dissociation time 60 s). Sensorgrams from reference surfaces and blank injections were subtracted from the raw data (double-referenced) and the data was solvent-corrected prior to analysis. Data were analyzed using a steady state affinity model through Biacore Evaluation Software to provide equivalent dissociation constants (Kd).
(In SPR one partner is held on a chip, and binding of the other changes the refractive index at the surface.)
Take `Cc1ccc2[nH]c3c(c2c1)CN(CC1(CC(=O)O)CC1)CC3` [CPD-055, 2-(1-((8-methyl-1,3,4,5-tetrahydro-2H-pyrido[4,3-b]indol-2-yl)methyl)cyclopropyl) acetic acid]: the Kd was > 100 µM.
Turning to `Cc1ccc2[nH]c3c(c2c1)CN(CC(O)COc1ccc(C(=O)O)cc1)CC3` (centres unmarked) [CPD-056, 4-(2-hydroxy-3-(8-methyl-1,3,4,5-tetrahydro-2H-pyrido[4,3-b]indol-2-yl)propoxy)benzoic acid], the Kd was ≤ 40 µM.
Consider `CN1CCc2c(c3ccccc3n2-c2ccccc2)C1` [CPD-057, 2-methyl-5-phenyl-2,3,4,5-tetrahydro-1H-pyrido[4,3-b]indole], for which the Kd was > 100 µM.
`CN1CCc2c(c3ccccc3n2Cc2ccccc2)C1` [CPD-058, 5-benzyl-2-methyl-2,3,4,5-tetrahydro-1H-pyrido[4,3-b]indole]: the Kd fell in the range of 70 to 100 µM.
Compound `Cc1ccc(CCn2c3c(c4ccccc42)CN(C)CC3)cn1` [CPD-059, 2-methyl-5-(2-(6-methylpyridin-3-yl)ethyl)-2,3,4,5-tetrahydro-1H-pyrido[4,3-b]indole] had a Kd of 40 to 70 µM.
To `CN1CCc2c(c3ccccc3n2CCC(N)=O)C1` [CPD-060, 3-(2-methyl-1,2,3,4-tetrahydro-5H-pyrido[4,3-b]indol-5-yl)propanamide] belongs 70 to 100 µM; to `Cc1ccc2c(c1)C1CN(C)CCC1N2c1nc(S(=O)(=O)c2ccccc2)c(Cl)s1` (centres unmarked) [CPD-061, 5-chloro-2-(2,8-dimethyl-1,2,3,4,4a,9b-hexahydro-5H-pyrido [4,3-b]indol-5-yl)-4-(phenylsulfonyl)thiazole], > 100 µM; to `Cc1ccc(S(=O)(=O)c2nc(N3c4ccc(C)cc4C4CN(C)CCC43)sc2Cl)cc1` (centres unmarked) [CPD-062, 5-chloro-2-(2,8-dimethyl-1,2,3,4,4a,9b-hexahydro-5H-pyrido [4,3-b]indol-5-yl)-4-tosylthiazole], > 100 µM.
To `COc1nccc(C(=O)N2c3ccc(C)cc3C3CN(C)CCC32)n1` (centres unmarked) [CPD-063, (2,8-dimethyl-1,2,3,4,4a,9b-hexahydro-5H-pyrido[4,3-b]indol-5-yl)(2-methoxypyrimidin-4-yl)methanone] belongs > 100 µM.
For the compound `COc1cc(C(=O)N2c3ccc(C)cc3C3CN(C)CCC32)ncn1` (centres unmarked) [CPD-064, (2,8-dimethyl-1,2,3,4,4a,9b-hexahydro-5H-pyrido [4,3-b]indol-5-yl)(6-methoxypyrimidin-4-yl)methanone], the dissociation constant Kd was > 100 µM.
To `Cc1ccc2c(c1)C1CN(C)CCC1N2C(=O)c1cc(F)ccc1Br` (centres unmarked) [CPD-065, (2-bromo-5-fluorophenyl) (2,8-dimethyl-1,2,3,4,4a,9b-hexahydro-5H-pyrido[4,3-b]indol-5-yl)methanone] belongs ≤ 40 µM; to `Cc1ccc2c(c1)C1CN(C)CCC1N2C(=O)c1nc(Cl)ccc1Cl` (centres unmarked) [CPD-066, (3,6-dichloropyridin-2-yl) (2,8-dimethyl-1,2,3,4,4a,9b-hexahydro-5H-pyrido[4,3-b]indol-5-yl)methanone], > 100 µM; to `COc1cc(C)ccc1C(=O)N1c2ccc(C)cc2C2CN(C)CCC21` (centres unmarked) [CPD-067, (2,8-dimethyl-1,2,3,4,4a,9b-hexahydro-5H-pyrido[4,3-b]indol-5-yl)(2-methoxy-4-methylphenyl)methanone], > 100 µM.
To `Cc1ccc2c(c1)C1CN(C)CCC1N2C(=O)c1cc(-n2cccc2)ccn1` (centres unmarked) [CPD-068, (4-(1H-pyrrol-1-yl)pyridin-2-yl)(2,8-dimethyl-1,2,3,4,4a,9b-hexahydro-5H-pyrido[4,3-b]indol-5-yl)methanone] belongs > 100 µM; to `Cc1ccc2c(c1)C1CN(C)CCC1N2C(=O)c1ccnc(OCC(F)F)c1` (centres unmarked) [CPD-069, (2-(2,2-difluoroethoxy)pyridin-4-yl)(2,8-dimethyl-1,2,3,4,4a,9b-hexahydro-5H-pyrido[4,3-b]indol-5-yl)methanone], > 100 µM; to `COc1nn(C)cc1C(=O)N1c2ccc(C)cc2C2CN(C)CCC21` (centres unmarked) [CPD-070, (2,8-dimethyl-1,2,3,4,4a,9b-hexahydro-5H-pyrido[4,3-b]indol-5-yl)(3-methoxy-1-methyl-1H-pyrazol-4-yl)methanone], > 100 µM.
As for `CCn1nc(C2CC2)cc1C(=O)N1c2ccc(C)cc2C2CN(C)CCC21` (centres unmarked) [CPD-071, (3-cyclopropyl-1-ethyl-1H-pyrazol-5-yl)(2,8-dimethyl-1,2,3,4,4a,9b-hexahydro-5H-pyrido[4,3-b]indol-5-yl)methanone], the Kd was > 100 µM.
As for `Cc1ccc2c(c1)C1CN(C)CCC1N2C(=O)c1cc(C#N)oc1C` (centres unmarked) [CPD-072, 4-(2,8-dimethyl-2,3,4,4a,5,9b-hexahydro-1H-pyrido[4,3-b]indole-5-carbonyl)-5-methylfuran-2-carbonitrile], the Kd was > 100 µM.
The same measure for `Cc1ccc2c(c1)C1CN(C)CCC1N2C(=O)c1cc2c(s1)CCCC2` (centres unmarked) [CPD-073, (2,8-dimethyl-1,2,3,4,4a,9b-hexahydro-5H-pyrido[4,3-b]indol-5-yl)(4,5,6,7-tetrahydrobenzo[b]thiophen-2-yl)methanone]: > 100 µM; for `Cc1ccc2c(c1)C1CN(C)CCC1N2C(=O)c1cc2c(C)nn(-c3ccc(Cl)cc3)c2s1` (centres unmarked) [CPD-074, (1-(4-chlorophenyl)-3-methyl-1H-thieno[2,3-c]pyrazol-5-yl)(2,8-dimethyl-1,2,3,4,4a,9b-hexahydro-5H-pyrido[4,3-b]indol-5-yl)methanone]: > 100 µM; for `Cc1ccc2c(c1)C1CN(C)CCC1N2C(=O)/C=C/c1cccc(C(F)(F)F)c1` (centres unmarked) [CPD-075, (E)-1-(2,8-dimethyl-1,2,3,4,4a,9b-hexahydro-5H-pyrido [4,3-b]indol-5-yl)-3-(3-(trifluoromethyl)phenyl)prop-2-en-1-one]: > 100 µM.
To `COC(=O)c1scc(C)c1S(=O)(=O)N1c2ccc(C)cc2C2CN(C)CCC21` (centres unmarked) [CPD-076, methyl 3-((2,8-dimethyl-1,2,3,4,4a,9b-hexahydro-5H-pyrido[4,3-b]indol-5-yl)sulfonyl)-4-methylthiophene-2-carboxylate] belongs 40 to 70 µM.
On to `Cc1ccc2c(c1)C1CN(C)CCC1N2S(=O)(=O)c1ccc(C(=O)C(C)C)cc1` (centres unmarked) [CPD-077, 1-(4-((2,8-dimethyl-1,2,3,4,4a,9b-hexahydro-5H-pyrido[4,3-b]indol-5-yl)sulfonyl)phenyl)-2-methylpropan-1-one], for which the Kd is > 100 µM.
`Cc1ccc2c(c1)C1CN(C)CCC1N2S(=O)(=O)c1c([N+](=O)[O-])ccc(C)c1C` (centres unmarked) [CPD-078, 5-((2,3-dimethyl-6-nitrophenyl)sulfonyl)-2,8-dimethyl-2,3,4,4a,5,9b-hexahydro-1H-pyrido[4,3-b]indole]: the Kd was > 100 µM.
On to `Cc1ccc(C(=O)N[C@H](C(=O)N2c3ccc(C)cc3C3CN(C)CCC32)C(C)C)cc1` (stereo partly drawn) [CPD-079, N-((2S)-1-(2,8-dimethyl-1,2,3,4,4a,9b-hexahydro-5H-pyrido [4,3-b]indol-5-yl)-3-methyl-1-oxobutan-2-yl)-4-methylbenzamide], for which the Kd was > 100 µM.
On to `Cc1ccc2c(c1)C1CN(C)CCC1N2C(=O)C[C@@H](n1cccn1)C(F)(F)F` (stereo partly drawn) [CPD-080, (R)-1-(2,8-dimethyl-1,2,3,4,4a,9b-hexahydro-5H-pyrido [4,3-b]indol-5-yl)-4,4,4-trifluoro-3-(1H-pyrazol-1-yl)butan-1-one], for which the Kd was > 100 µM.
In the case of `Cc1ccc2c(c1)C1CN(C)CCC1N2C(=O)/C=C/c1nccs1` (centres unmarked) [CPD-081, (E)-1-(2,8-dimethyl-1,2,3,4,4a,9b-hexahydro-5H-pyrido [4,3-b]indol-5-yl)-3-(thiazol-2-yl)prop-2-en-1-one], the Kd is > 100 µM.
To `Cc1ccc2c(c1)C1CN(C)CCC1N2C(=O)CCc1cccs1` (centres unmarked) [CPD-082, 1-(2,8-dimethyl-1,2,3,4,4a,9b-hexahydro-5H-pyrido[4,3-b]indol-5-yl)-3-(thiophen-2-yl)propan-1-one] belongs > 100 µM; to `Cc1ccc2c(c1)C1CN(C)CCC1N2C(=O)/C=C/c1ccccc1` (centres unmarked) [CPD-083, (E)-1-(2,8-dimethyl-1,2,3,4,4a,9b-hexahydro-5H-pyrido [4,3-b]indol-5-yl)-3-phenylprop-2-en-1-one], > 100 µM.

What is called Kd is the constant that tells how readily two partners part at equilibrium.
